Test results as given in patent US10687532B2, “Substituted oxadiazoles for combating phytopathogenic fungi” (BASF SE, priority 2015, dated 2020).

Row | SMILES | melting point
1 | O=C(Nc1ccc(-c2noc(C(F)(F)F)n2)cc1)C1CCC1 [Ex-2, N-[4-[5-(trifluoromethyl)-1,2,4-oxadiazol-3-yl]phenyl]cyclobutanecarboxamide] | 183 °C
2 | CN(C(=O)C1CC1)c1ccc(-c2noc(C(F)(F)F)n2)cc1 [Ex-7, N-methyl-N-[4-[5-(trifluoromethyl)-1,2,4-oxadiazol-3-yl]phenyl]cyclopropanecarboxamide] | 98 °C
